{"source": "patent US20240059729A1", "about": "“MULTIFUNCTIONAL CYCLIC DINUCLEOTIDE AND USE THEREOF” (TYLIGAND BIOSCIENCE (SHANGHAI) LIMITED, priority 2020, published 2024)", "experiment": "Hepatocyte metabolic stability assay", "format": "in vitro ADME", "conditions": "5 species of hepatocytes (mouse, rat, dog, monkey, human); FIG. 4A", "description": "The compounds of the invention were similarly tested for hepatocyte metabolic stability in 5 species (mouse, rat, dog, monkey, human) according to standard methods of in vitro metabolic stability studies conventional in the art, for example (Kems, Edward H. and Di Li (2008). Drug-like Properties: Concepts, Structure Design and Methods: From ADME to Toxicity Optimization, San Diego: Academic Press; Di, Li et al, Optimization of a High Throughput Microsomal Stability Screening Assay for Profiling Drug Discovery Candidates, J Biomol Screen. 2003, 8(4), 453).\nThe hepatocytes used in the experiment: human hepatocytes (SHQY, Lot #HEP190006), dog hepatocytes (IVT, Lot #ZMB); monkey hepatocytes (Xenotech, Lot #2010022), rat hepatocytes (SHQY, Lot #HEP134045), and mouse hepatocytes (BioIVT, Cat. #M005052, Lot. #MEO).\nCryopreserved hepatocyte tubes were removed from a liquid nitrogen tank and immediately placed ill in a shaking water bath at 37±1° C. for 2 minutes±15 seconds. […] The supernatant was aspirated without touching the cell pellet, and cell viability and number were determined. The hepatocytes were counted and then the cell suspension was diluted in KHB buffer to the appropriate density (viable cell density=2×10^6 cells/mL). […]", "note": "Counter-ions that a name gives are not always drawn."}
{"smiles": "Nc1nc2c(ncn2[C@@H]2O[C@@H]3CO[P@@](=O)(S)OC4C(F)[C@H](n5cnc6c(N)nc(Cl)nc65)O[C@@H]4CO[P@@](=O)(S)OC2C3O)c(=O)[nH]1", "note": "(stereo partly drawn) [Example 10, (2′,3′)-cyclo-(Rp,Rp)-[2′-O-phosphorothioate-diester-guanosine]-[3′-O-phosphorothioate-diester-2-chloro-2′-deoxy-2′-fluoro-beta-adenosine] diammonium salt]", "values": [{"measurement": "Hepatocyte metabolic stability (in words)", "result": "good metabolic stability"}]}
